Experimental data from patent US20230247991A1, “ANTIMICROBIAL MIXTURE CONTAINING 4-(3-ETHOXY-4-HYDROXYPHENYL)BUTAN-2-ONE AND AN ORGANIC ACID COMPOUND, AND COSMETIC COMPOSITION CONTAINING SAME” (L'OREAL, priority 2017, published 2023).
“And” between values parts separate entries of the source, which are not always exact repeats. Equal entries are not always repeated.

What was measured:
Assay in all cases: MIC / FIC index synergy test, 96-well microplate, optical density at 620 nm
Format in all cases: cell-based
[1] = tested on: Candida albicans ATCC 10231; details: compound alone; for MIC alone: first concentration giving growth <= 25%
From the text: FIC Index=([…]) with: • MICa with B: minimum concentration of product A in the combination A+B which makes it possible to obtain an inhibitory effect • MICb with A: minimum concentration of product B in the combination A+B which makes it possible to obtain an inhibitory effect. • MICa: minimum inhibitory concentration of product A alone. • MICb: minimum inhibitory concentration of product B alone. […] The microbial strain Candida albicans ATCC 10231 and a double-concentration Sabouraud broth liquid culture medium were used. A 96-well microplate and an incubation temperature of 32.5° C. are used. […] Successive dilutions were made with the 1‰ agar solution. 50 μl of each of the daughter solutions obtained containing compound A or B are added to the microplate wells. 100 μl of Sabouraud liquid nutrient broth inoculated at double concentration with the strain Candida albicans and 50 μl of aqueous 1‰ agar solution are also added thereto. 50 μl of each of the daughter solutions obtained containing compound A and 50 μl of each of the daughter solutions obtained containing compound B are added to the microplate wells. 100 μl of Sabouraud liquid nutrient broth inoculated at double concentration with the strain Candida albicans are also added thereto. In the two cases (test and control), the inoculum represents the concentration of the strain Candida albicans present in the final volume of the wells (200 μl) and is between 2 and 6χ 10^5 cfu/ml of Candida albicans.

[2] = tested on: Enterococcus faecalis ATCC 33186; details: compound alone; for % MIC alone: first concentration giving growth <= 25%
From the text: (§1) FIC Index=([…]) with: • MICa with B: minimum concentration of product A in the combination A+B which makes it possible to obtain an inhibitory effect • MICb with A: minimum concentration of product B in the combination A+B which makes it possible to obtain an inhibitory effect. • MICa: minimum inhibitory concentration of product A alone. • MICb: minimum inhibitory concentration of product B alone. […] As regards the combinations tested, MICa with b and MICb with a are the respective concentrations of A and of B in the combinations which make it possible to obtain a microbial growth percentage of less than or equal to 25%. […] The microbial strain Enterococcus faecalis ATCC 33186 and a double-concentration BHI (Brain Heart Infusion) broth liquid culture medium were used. A 96-well microplate and an incubation temperature of 32.5° C. are used. […] Successive dilutions were made with the 1‰ agar solution. 50 μl of each of the daughter solutions obtained containing compound A or B are added to the microplate wells. 100 μl of Sabouraud liquid nutrient broth inoculated at double concentration with the strain Candida albicans and 50 μl of aqueous 1‰ agar solution are also added thereto. 50 μl of each of the daughter solutions obtained containing compound A and 50 μl of each of the daughter solutions obtained containing compound B are added to the microplate wells. 100 μl of Sabouraud liquid nutrient broth inoculated at double concentration with the strain Candida albicans are also added thereto. […] The test as described above (tests, absorbance controls and growth control) was performed again to test the combination A+B on the following strains Enterococcus faecalis, Staphylococcus aureus, Pseudomonas aeruginosa, Candida albicans.

[3] = tested on: Aspergillus niger ATCC 6275
[4] = tested on: Pseudomonas aeruginosa ATCC 9027; details: for MIC of compound alone: first concentration giving growth <= 25%; for microbial growth percentage: compound alone
From the text: as §1, with “strain Pseudomonas aeruginosa” for “strain Enterococcus faecalis”, “ATCC 9027” for “ATCC 33186”, “double-concentration nutritive” for “double-concentration BHI (Brain Heart Infusion)”

[5] = tested on: Staphylococcus aureus ATCC 6538; details: compound alone; for MIC alone: first concentration giving growth <= 25%
From the text: FIC Index=([…]) with: • MICa with B: minimum concentration of product A in the combination A+B which makes it possible to obtain an inhibitory effect • MICb with A: minimum concentration of product B in the combination A+B which makes it possible to obtain an inhibitory effect. • MICa: minimum inhibitory concentration of product A alone. • MICb: minimum inhibitory concentration of product B alone. […] As regards the combinations tested, MICa with b and MICb with a are the respective concentrations of A and of B in the combinations which make it possible to obtain a microbial growth percentage of less than or equal to 25%. When the FIC index value is less than or equal to 1, it is considered that the combination of test compounds has a synergistic effect. The microbial strain Staphylococcus aureus ATCC 6538 and a double-concentration nutritive broth liquid culture medium were used. A 96-well microplate and an incubation temperature of 32.5° C. are used. […] Successive dilutions were made with the 1‰ agar solution. 50 μl of each of the daughter solutions obtained containing compound A or B are added to the microplate wells. 100 μl of Sabouraud liquid nutrient broth inoculated at double concentration with the strain Candida albicans and 50 μl of aqueous 1‰ agar solution are also added thereto. 50 μl of each of the daughter solutions obtained containing compound A and 50 μl of each of the daughter solutions obtained containing compound B are added to the microplate wells. 100 μl of Sabouraud liquid nutrient broth inoculated at double concentration with the strain Candida albicans are also added thereto. […] The test as described above (tests, absorbance controls and growth control) was performed again to test the combination A+B on the following strains Enterococcus faecalis, Staphylococcus aureus, Pseudomonas aeruginosa, Candida albicans.

[6] = first concentration giving growth <= 25%
[7] = compound alone, 0.0025 weight %

Compound | microbial growth percentage ([1]; 0.025 weight %) | microbial growth percentage ([1]; 0.05 weight %) [%] | microbial growth percentage ([1]; 0.1 weight %) [%] | MIC alone [1] | microbial growth percentage ([2]; 1 weight %) | % MIC alone [2] | MIC of compound alone [3, 6] | MIC of compound alone [4] [weight %] | microbial growth percentage ([5]; 0.125 weight %) | microbial growth percentage ([5]; 0.25 weight %) | microbial growth percentage ([5]; 0.5 weight %) | MIC alone [5] [weight %] | microbial growth percentage ([1]; 0.2 weight %) [%] | microbial growth percentage ([4]; 0.125 weight %) [%] | microbial growth percentage ([4]; 0.25 weight %) | microbial growth percentage ([4]; 0.5 weight %) | microbial growth percentage ([3]; compound alone, 0.025 weight %) | microbial growth percentage ([3]; compound alone, 0.05 weight %) | also measured
C/C=C/C=C/C(=O)O [B2, sorbic acid] | 37% | 24 | 21 | 0.1 weight % | 0% | 1 weight % | 0.5 weight % | 0.5 | 52% | 28% | −5% | 0.5 | – | – | – | – | – | – | microbial growth percentage ([2]; 0.25 weight %): 53%; microbial growth percentage ([2]; 0.5 weight %): 78%; microbial growth percentage ([3]; compound alone, 0.0125 weight %): 98%; microbial growth percentage ([3]; compound alone, 0.25 weight %): 95%; microbial growth percentage ([3]; compound alone, 0.5 weight %): 8%
O=C([O-])c1ccccc1.[Na+] [B1, sodium benzoate] | 55% | 33 | 24 | 0.2 weight % | – | – | – | 1 | 34% | 31% | 5% | 0.5 | 11 | 96 | 116% | 89% | – | – | microbial growth percentage ([4]; 0.0625 weight %): 93%; microbial growth percentage ([4]; 1 weight %): 0%; microbial growth percentage ([5]; 0.0625 weight %): 51%
CCOc1cc(CCC(C)=O)ccc1O [A, 4-(3-ethoxy-4-hydroxyphenyl)butan-2-one] | 55% and 56% and 61% and 74% and 53% | – | – | 0.1 weight % and 0.2 weight % | 15% and 28% and 16% | 1 weight % and 2 weight % | 0.25 weight % and 0.1 weight % and 0.4 weight % and 0.2 weight % | – | 65% and 60% and 61% | 55% and 52% and 51% | 5% and 1% | 0.5 | 6 | – | 79% and 78% and 87% | 74% and 52% and 64% | 65% and 62% | 40% and 32% | microbial growth percentage ([2]; 2 weight %): 24%; microbial growth percentage [3, 7]: 84%; microbial growth percentage ([3]; compound alone, 0.0625 weight %): 84% and 96%; microbial growth percentage ([3]; compound alone, 0.125 weight %): 40% and 41%; microbial growth percentage ([3]; compound alone, 0.25 weight %): 6% and 7%; microbial growth percentage ([3]; compound alone, 0.4 weight %): 5%; microbial growth percentage ([5]; 0.0625 weight %): 67% and 63% and 66%
C/C=C/C=C/C(=O)[O-].[K+] [B3, potassium sorbate] | – | – | – | – | 22% | 2 weight % | – | – | – | – | – | – | – | – | – | – | 58% | 37% | microbial growth percentage ([2]; 2 weight %): 10%; microbial growth percentage ([3]; compound alone, 0.1 weight %): 10%; % MIC alone ([3]; compound alone, first concentration giving growth <= 25%): 0.1 weight %
CC(=O)c1c([O-])cc(C)oc1=O.[Na+] [B8, sodium dehydroacetate] | – | – | – | 0.0025 weight % | – | – | 0.02 weight % | – | – | – | – | – | – | – | – | – | – | – | microbial growth percentage ([1]; 0.00125 weight %): 28%; microbial growth percentage ([1]; 0.0025 weight %): 15%; microbial growth percentage [3, 7]: 97%; microbial growth percentage ([3]; compound alone, 0.005 weight %): 29%; microbial growth percentage ([3]; compound alone, 0.01 weight %): 3%; microbial growth percentage ([3]; compound alone, 0.02 weight %): 3%
CCCCCCCC(=O)c1ccc(O)c(C(=O)O)c1 [B6, 5-n-octanoylsalicylic acid] | 40% | 30 | 1 | 0.1 weight % | – | 0.025 weight % | 0.1 weight % | – | – | – | – | – | – | – | – | – | 98% | 97% | microbial growth percentage ([1]; 0.0125 weight %): 66%; microbial growth percentage ([2]; 0.0125 weight %): 28%; microbial growth percentage ([2]; 0.025 weight %): 2%; microbial growth percentage ([3]; compound alone, 0.1 weight %): 17%
COC(=O)c1ccc(O)cc1 [B4, methyl 4-hydroxybenzoate] | 67% | 40 | 28 | 0.2 weight % | – | – | – | 0.5 | – | 51% | 44% | 1 | 12 | 150 | 142% | 1% | – | – | microbial growth percentage ([4]; 0.0625 weight %): 187%; microbial growth percentage ([5]; 1 weight %): 19%
CCCOC(=O)c1ccc(O)cc1 [B5, propyl 4-hydroxybenzoate] | 52% | 33 | 21 | 0.1 weight % | – | – | – | 1 | – | – | – | – | – | 76 | 45% | 42% | – | – | microbial growth percentage ([4]; 1 weight %): 24%
